# Read-outs that look alike come from different tables or passages of the source.
# Assays:
# Cytidine deaminase = Cytidine deaminase (Mus musculus, UniProt P56389); assay: Substrate specificity of cytidine deaminase (spectrophotometric deamination assay); type: biochemical; conditions: for Relative initial rate of deamination: 2.5×10^-4 M substrate, 1.3 mg enzyme protein, pH 7.0, 37° C., cytidine = 100
# Protocol: Thus, mouse kidney acetone powder (3 g. obtained from Sigma Chemical Co., St. Louis, Mo.) was extracted at 55°-60° C. for 5 minutes with phosphate buffer (pH 8.0, 0.05M). The extract was filtered through four layers of guaze bandage, and the remaining colloidal materials were removed by centrifugation at 20,000 g. for 10 minutes. The supernatant was then filtered through a Nalgene filter unit (0.45 μm grid membrane) to give a clear yellowish filtrate that was adjusted to 40% saturation by the addition of solid ammonium sulfate (24 g/100 ml. of filtrate) with stirring at room temperature, and stirring was continued for 30 minutes. After removal of the precipitate by centrifugation (20,000 g. for 30 minutes), the active supernatant was adjusted to 70% saturation by further addition of ammonium sulfate (24 g/100 ml of supernatant). The resulting precipitate, recovered by centrifugation (20,000 g. for 30 minutes), was dissolved in 4 ml. of phosphate buffer (pH 7.0, 0.05M) and dialyzed twice against 2 liters of the same buffer.
# Protein content was determined by Bio-Rad Protein Assay. […] All reaction mixtures contained 2.5×10^-4 M of substrate and 1.3 mg of enzyme protein in a final volume of 1.0 ml. of phosphate buffer (pH 7.0, 0.05M).
# RPMI-6410 (B-cells) = assay: Cytotoxicity (cell growth inhibition), RPMI-6410; type: cell-based; conditions: Homo sapiens, read-out: IC50 (molar conc. for 50% inhib. of cell growth)
# [1] = system: experimental tumors in animals; conditions: cited from earlier work
# CCFR-CEM/ara-C (mutant) = assay: Cytotoxicity (cell growth inhibition), ara-C resistant mutant; type: cell-based; conditions: Homo sapiens, read-out: IC50 (molar conc. for 50% inhib. of cell growth)
# MOLT-4 (T-cells) = assay: Cytotoxicity (cell growth inhibition), MOLT-4; type: cell-based; conditions: Homo sapiens, read-out: IC50 (molar conc. for 50% inhib. of cell growth)
# human leukemia cells = assay: Cytotoxicity to human leukemia cells in culture, summary
# Protocol: Experiments were also carried out to determine the growth potential of cultured human lymphoblasts in the presence of nitrara-C in tissue culture.
# CCRF-CEM (T-cells) = assay: Cytotoxicity (cell growth inhibition), CCRF-CEM; type: cell-based; conditions: Homo sapiens, read-out: IC50 (molar conc. for 50% inhib. of cell growth)
# murine leukemia L1210 = assay: In vivo L1210 leukemia cell number in peritoneal cavity 24 h after single i.p. dose; parameters: species or system murine (B6D2F1/J female mice); conditions: 720 mg/kg i.p., 24 hours after treatment (day 6)
# Protocol: 1-(2-O-Nitro-β-D-arabinofuranosyl)cytosine (nitrara-C) is a powerful anti-neoplastic agent particularly against the leukemias.
# B6D2F1 /J female mice weighing ~20 g. were inoculated intraperitoneally with 1×10^5 cells of the murine leukemia, L1210. Five days later, the leukemia cells were washed from the peritoneal cavities of untreated mice, and baseline counts were made. Concomitantly, other groups of mice were treated i.p. with either ara-C.HCl or nitrara-C.HCl. Each drug was administered at a level of 720 mg/kg in a volume of 0.01 ml/gm of mouse weight. Twenty-four hours later, on day 6, cells were washed from the peritoneal cavities of both treated and NaCl-injected mice, and cell numbers were compared.
# Five days after the intraperitoneal inoculation of B6D2F1 /J mice with one hundred thousand cells of leukemia L1210, an average of 255 million cells were recovered from the abdominal compartments of untreated mice. Twenty-four hours later, this value had increased by 52 percent for NaCl-injected mice, but had declined by 90 percent for animals that received 720 mg/kg of nitrara-C and 77% for ara-C treated group.
# L1210 = assay: Life-span of mice inoculated i.p. with L1210 (3×10^6 cells), treatment started 24 h after implantation; type: in vivo, murine (B6D2F1/J female mice); conditions: for indefinite cures (60 day survivors): 5 mice per group; for extension of lifespan: 2000 mg/kg
# Protocol: In a similar further study, B6D2F1 /J female mice were inoculated i.p. with 3×10^6 cells of L1210. Treatment was started 24 hours after tumor implantation. Nitrara-C hydrochloride treatment regimens were as follows:
# Injections of 0.9 percent saline were used as a control.
# On regimen 1, statistically significant increase in life-span was obtained with dosages higher than 34 mg/kg.
# CCRF-CEM cells = assay: Effect of cytidine deaminase on cytotoxicity for CCRF-CEM cells; conditions: Homo sapiens, CCRF-CEM
# [2] = as above; conditions: cytidine deaminase
# [3] = human leukemia cells in culture
smiles,measurement,setting,value
"Nc1ccn([C@H]2C[C@H](O)[C@@H](CO)O2)c(=O)n1 [2'-Deoxycytidine, reference compound]",Relative initial rate of deamination,Cytidine deaminase,39
"Nc1ccn([C@@H]2O[C@H](CO)[C@@H](O)[C@@H]2O)c(=O)n1 [Ara-C, 1-β-D-arabinofuranosylcytosine]",IC50,"RPMI-6410 (B-cells); RPMI 6410, 48 h",0.06 µM
same,activity in experimental tumors (in words),[1],active in several experimental tumors in animals
same,IC50,CCFR-CEM/ara-C (mutant); 48 h,100 µM
same,IC50,"MOLT-4 (T-cells); MOLT-4, 48 h",10 nM
same,dependence of cytotoxicity on phosphorylation (in words),human leukemia cells,cytotoxicity depends on phosphorylation
same,IC50,"CCRF-CEM (T-cells); CCRF-CEM, 48 h",20 nM
same,decline in number of L1210 cells recovered from abdominal compartment,murine leukemia L1210,77%
"Cl.Nc1ccn([C@@H]2O[C@H](CO)[C@@H](O)[C@@H]2O[N+](=O)[O-])c(=O)n1 [Nitrara-C hydrochloride, 1-(2-O-Nitro-β-D-arabinofuranosyl)cytosine hydrochloride]",minimal effective dose,"L1210; Mus musculus, L1210, ip, 168 h, regimen 1 (daily for 7 days), read-out: dosages giving statistically significant increase in life-span",> 34 mg/kg
same,toxic deaths,L1210; any of the above regimens at the highest dosages,Toxic deaths were not seen
same,extension of life-span,"L1210; regimen 1 (daily for 7 days), 208 mg/kg",162%
same,indefinite cures (60 day survivors),"L1210; regimen 1 (daily for 7 days), 259 mg/kg",3 survivors
same,indefinite cures (60 day survivors),"L1210; regimen 1 (daily for 7 days), 346 mg/kg",1 survivor
same,indefinite cures (60 day survivors),"L1210; regimen 1 (daily for 7 days), 432 mg/kg",2 survivors
same,indefinite cures (60 day survivors),"L1210; regimen 1 (daily for 7 days), 720 mg/kg",1 survivor
same,extension of lifespan,L1210; regimen 2 (day 1 only),57%
same,extension of lifespan,L1210; regimen 3 (days 1 and 4 only),120%
same,extension of lifespan,"L1210; regimen 4 (days 1, 4 and 7)",197%
"Nc1ccn([C@@H]2O[C@H](CO)[C@@H](O)[C@@H]2O[N+](=O)[O-])c(=O)n1 [Nitrara-C, 1-(2-O-nitro-β-D-arabinofuranosyl)cytosine]",IC50,"RPMI-6410 (B-cells); RPMI-6410 (B-cells), 48 hours",6 µM
same,IC50,"CCRF-CEM cells; read-out: IC50 (molar conc. for 50% inhib. of cell growth), with cytidine deaminase",600 nM
same,IC50,"CCRF-CEM cells; read-out: IC50 (molar conc. for 50% inhib. of cell growth), without cytidine deaminase",600 nM
same,metabolised,[2],< 1%
same,IC50,"CCFR-CEM/ara-C (mutant); CCFR-CEM/ara-C (mutant), deficient in deoxycytidine kinase, 48 hours",1000 µM
same,IC50,"MOLT-4 (T-cells); MOLT-4 (T-cells), 48 hours",400 nM
same,dependence of cytotoxicity on phosphorylation (in words),human leukemia cells,cytotoxicity depends on phosphorylation
same,activity compared to ara-C (in words),human leukemia cells; [3],compares favorably to that of ara-C
same,cytotoxicity (in words),human leukemia cells; [3],highly cytotoxic to various human leukemia cells in culture
same,deamination by cytidine deaminase (in words),Cytidine deaminase,not deaminated by cytidine deaminase
same,Relative initial rate of deamination,Cytidine deaminase,< 1
same,IC50,"CCRF-CEM (T-cells); CCRF-CEM (T-cells), 48 hours",600 nM
same,decline in number of L1210 cells recovered from abdominal compartment,murine leukemia L1210,90%

# Reference: US4652554A, “Nitro-substituted 1-β-D-arabinofuranosylcytosines” (St. Jude Children's Research Hospital, priority 1982, dated 1987)
